15 molecules from US10968225B2, “Compounds and compositions for the treatment of cystic fibrosis” (Fondazione Istituto Italiano Di Tecnologia, priority 2017, dated 2021) can be followed below.

One may read the EC50 as the concentration needed to bring the measured effect to its halfway point.

In one experiment the target is T1, F508del-CFTR (Homo sapiens, UniProt P13569, DEL508-508). The experiment can be described thus: Transepithelial electrical conductance (TEEC) in FRT cells. The format is cell-based. The arrangement: expressed in transfected cells; host or cells: FRT cells. Particulars: compounds tested at 5.0 µM; FRT cells expressing F508del-CFTR; 24 hrs incubation; forskolin and genistein stimulation minus PPQ-102 block. The method, then: Transepithelial Electrical Conductance (TEEC)
T1 sequence (P13569 with tags, fused parts or gaps DEL508-508): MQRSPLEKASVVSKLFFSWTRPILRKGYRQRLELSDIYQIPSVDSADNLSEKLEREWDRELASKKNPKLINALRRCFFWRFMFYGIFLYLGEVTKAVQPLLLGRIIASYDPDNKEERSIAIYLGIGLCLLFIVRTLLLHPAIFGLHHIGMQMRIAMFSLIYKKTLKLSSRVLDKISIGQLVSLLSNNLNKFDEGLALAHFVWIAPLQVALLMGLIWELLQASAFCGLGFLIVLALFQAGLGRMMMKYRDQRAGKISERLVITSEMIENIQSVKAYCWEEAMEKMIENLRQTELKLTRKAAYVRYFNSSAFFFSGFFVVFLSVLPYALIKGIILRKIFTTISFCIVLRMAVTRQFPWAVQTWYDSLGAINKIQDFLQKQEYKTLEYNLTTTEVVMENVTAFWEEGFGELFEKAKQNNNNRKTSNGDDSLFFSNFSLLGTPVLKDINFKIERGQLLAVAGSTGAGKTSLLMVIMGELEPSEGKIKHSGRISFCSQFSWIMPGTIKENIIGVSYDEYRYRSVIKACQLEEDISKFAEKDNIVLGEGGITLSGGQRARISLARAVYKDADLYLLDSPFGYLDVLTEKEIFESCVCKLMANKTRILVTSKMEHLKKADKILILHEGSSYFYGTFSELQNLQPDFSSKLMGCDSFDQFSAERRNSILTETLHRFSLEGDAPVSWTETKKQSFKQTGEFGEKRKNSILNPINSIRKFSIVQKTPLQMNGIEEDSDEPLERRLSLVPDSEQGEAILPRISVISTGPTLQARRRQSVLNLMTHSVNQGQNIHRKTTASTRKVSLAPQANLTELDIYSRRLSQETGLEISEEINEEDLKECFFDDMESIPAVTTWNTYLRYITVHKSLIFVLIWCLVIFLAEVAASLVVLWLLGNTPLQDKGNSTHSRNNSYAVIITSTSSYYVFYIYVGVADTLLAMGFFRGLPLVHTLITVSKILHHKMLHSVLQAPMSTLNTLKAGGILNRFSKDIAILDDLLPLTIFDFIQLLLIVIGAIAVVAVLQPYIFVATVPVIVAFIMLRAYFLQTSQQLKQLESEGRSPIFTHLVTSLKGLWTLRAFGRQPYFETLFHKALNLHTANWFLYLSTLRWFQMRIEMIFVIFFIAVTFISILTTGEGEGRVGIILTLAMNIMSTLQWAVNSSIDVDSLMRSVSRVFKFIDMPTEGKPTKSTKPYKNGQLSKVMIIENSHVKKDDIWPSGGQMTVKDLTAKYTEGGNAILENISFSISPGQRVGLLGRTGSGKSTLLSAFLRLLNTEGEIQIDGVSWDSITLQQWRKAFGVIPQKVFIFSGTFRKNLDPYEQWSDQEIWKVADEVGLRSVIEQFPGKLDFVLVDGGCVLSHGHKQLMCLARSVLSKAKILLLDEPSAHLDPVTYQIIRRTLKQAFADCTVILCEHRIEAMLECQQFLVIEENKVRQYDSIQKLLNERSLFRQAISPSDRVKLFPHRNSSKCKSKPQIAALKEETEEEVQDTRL
FRT cells expressing F508del-CFTR were plated on HTS Transwell-24 well permeable supports (Code 3379, Corning Life Sciences) at a density of 200,000 cells/well. After six days, cells were incubated for 24 hrs with test correctors, vehicle, or VX-809. Compounds were dissolved in both basolateral (800 μL) and apical (300 μL) culture medium. After treatment, the culture medium was removed and replaced on both sides with a saline solution containing (in mM): 130 NaCl, 2.7 KCl, 1.5 KH2PO4, 1 CaCl2, 0.5 MgCl2, 10 glucose, 10 Na-Hepes (pH 7.4). The basolateral and apical side received 800 μL and 100 μL, respectively. The 24-well tray with cells was placed on a block heater (SBH 130D, Stuart) to keep the temperature at 37° C. during the entire experiment. After 10 min, the basal transepithelial electrical resistance (TEER) across each layer of FRT cells was measured with a STX100C electrode pair connected to an EVOM2 voltohmeter (World Precision Instruments). To stimulate F508del-CFTR, each well received (apical side) 50 μL of saline solution containing 60 μM forskolin and 150 μM genistein (final concentrations: 20 μM forskolin, 50 μM genistein). Forskolin was also pipetted in the basolateral medium to obtain the 20 μM concentration. After 10 min TEER was measured again in each well. To block F508del-CFTR function, the inhibitor PPQ-102 was used at the final concentration of 30 μM. To achieve the desired concentration, 75 μL of the apical solution in each well was replaced with an equal volume of saline solution containing 20 μM forskolin, 50 μM genistein, and 60 μM PPQ-102. After further 10 min, the transepithelial electrical resistance was measured. All values of TEER were converted to transepithelial electrical conductance (TEEC) using the formula TEEC=1/TEER. The parameter to indicate activity of F508del-CFTR in each well (ΔTEEC) was calculated from the difference in TEEC measured after maximal stimulation of F508del-CFTR with forskolin and genistein and after block with PPQ-102.
Corrector activities obtained on selected compounds tested at 5.0 µM (expressed as ΔTEEC values) are illustrated in table 2, wherein +: ΔTEEC<2000 µS; ++: 2000 µS<ΔTEEC<3000[…]S; +++: ΔTEEC>3000 µS.
On to `CN(C(=O)c1cccc(-n2nc(C(F)(F)F)c3c2CC2CCC3N2C(=O)OC(C)(C)C)c1)c1ccc2c(c1)OCO2` (racemic) [Compound 018, tert-Butyl 1-(3-(benzo[d][1,3]dioxol-5-yl(methyl)carbamoyl)phenyl)-3-(trifluoromethyl)-1,4,5,6,7,8-hexahydro-4,7-epiminocyclohepta[c]pyrazole-9-carboxylate], for which the “Corrector activity (expressed as ΔTEEC values)” value was “+++ (ΔTEEC>3000 µS)”.

Another experiment has as its target T1, F508del-CFTR. The experiment can be described thus: Short-circuit current recordings on human bronchial epithelial cells. Particulars: compounds tested at 1.0 µM; HBE cells from CF patients (F508del/F508del); 24 hrs treatment; CPT-cAMP plus VX-770 minus CFTRinh-172. The arrangement: Human bronchial epithelial (HBE) cells obtained from CF patients (F508del/F508del genotype); endogenous in cells; host or cells: primary human bronchial epithelial cells from CF patients, F508del/F508del. The format is cell-based. The method, then:
Short-Circuit Current Recordings on Human Bronchial Epithelial Cells
Human bronchial epithelial (HBE) cells obtained from CF patients (F508del/F508del genotype) were plated on Snapwell inserts (Code 3801, Corning Life Sciences) at a density of 500,000 cells per insert. Cells were cultured for two weeks in a differentiating medium whose compositions has been previously described (Scudieri et al., J Physiol 590:6141-6155, 2012). For the first week, the medium was kept on both apical and basolateral sides of inserts (submerged condition). For the second week, the apical medium was removed (air-liquid condition, ALC). To test the activity of correctors, cells were treated for 24 hrs with compounds dissolved in the basolateral medium. After treatment, Snapwell inserts carrying differentiated bronchial epithelia were mounted in a vertical chamber resembling an Ussing system with internal fluid circulation. Both apical and basolateral hemichambers were filled with 5 mL of a Krebs bicarbonate solution containing (in mM): 126 NaCl, 0.38 KH2PO4, 2.13 K2HPO4, 1 MgSO4, 1 CaCl2, 24 NaHCO3, and 10 glucose. Both sides were continuously bubbled with a gas mixture containing 5% CO2-95% air and the temperature of the solution was kept at 37° C. The transepithelial voltage was short-circuited with a voltage-clamp (DVC-1000, World Precision Instruments) connected to the apical and basolateral chambers via Ag/AgCl electrodes and agar bridges (1 M KCl in 1% agar). The offset between voltage electrodes and the fluid resistance were canceled before experiments. The short-circuit current was recorded with a PowerLab 4/25 (ADInstruments) analogical to digital converter connected to a Macintosh computer. […] The difference between the current measured with CPT-cAMP plus potentiator and the current remaining after CFTRinh-172 treatment ([…]ICFTR) was taken as the parameter reflecting F508del-CFTR expression in the apical membrane.
Activities of selected compounds on HBE cells tested at 1.0 µM (expressed as […]ICFTR) are illustrated in table 3 wherein +: […]ICFTR<2.0 µA; ++: 2 μA<[…]ICFTR<3.0 μA; +++: […]ICFTR>3.0 µA.
Turning to `CN(C(=O)c1cccc(-n2nc(C(F)(F)F)c3c2CC2CCC3N2C(=O)OC(C)(C)C)c1)c1ccc2c(c1)OCO2` (racemic) [Compound 018, tert-Butyl 1-(3-(benzo[d][1,3]dioxol-5-yl(methyl)carbamoyl)phenyl)-3-(trifluoromethyl)-1,4,5,6,7,8-hexahydro-4,7-epiminocyclohepta[c]pyrazole-9-carboxylate], the “activity on HBE cells (expressed as […]ICFTR)” value is recorded as “+++ ([…]ICFTR>3.0 µA)”.

The next experiment deals with T2, mutant CFTR (Homo sapiens, UniProt P13569, DEL508-508).
T2 construct: expressed in transfected cells
T2 sequence (P13569 with tags, fused parts or gaps DEL508-508): as above
The experiment in a line: Fluorescence (HS-YFP) assay for CFTR activity, corrector assay. It counts as cell-based. Particulars: CFBE41o- and FRT cells with stable expression of mutant CFTR, read-out: activity (EC50).
`CN(C(=O)c1cccc(-n2nc(C(F)(F)F)c3c2CC2CCC3N2C(=O)OC(C)(C)C)c1)c1ccc2c(c1)OCO2` (racemic) [Compound 018, tert-Butyl 1-(3-(benzo[d][1,3]dioxol-5-yl(methyl)carbamoyl)phenyl)-3-(trifluoromethyl)-1,4,5,6,7,8-hexahydro-4,7-epiminocyclohepta[c]pyrazole-9-carboxylate]: the EC50 was under 1000 nM.

Regarding `CN(C(=O)c1cccc(-n2nc(C(F)(F)F)c3c2C(Oc2ccc(C(N)=O)cc2)CCC3)c1)c1ccc2c(c1)OC(F)(F)O2` (centres unmarked) [Compound 162, 3-[7-(4-Carbamoylphenoxy)-3-(trifluoromethyl)-4,5,6,7-tetrahydroindazol-1-yl]-N-(2,2-difluoro-1,3-benzodioxol-5-yl)-N-methyl-benzamide], the EC50 was under 1000 nM.

For the molecule `CN(C(=O)c1cccc(-n2nc(C(F)(F)F)c3c2C(Oc2ccc(C(=O)O)nc2)CCC3)c1)c1ccc2c(c1)OC(F)(F)O2` (centres unmarked) [Compound 164, 5-[[1-[3-[(2,2-Difluoro-1,3-benzodioxol-5-yl)-methyl-carbamoyl]phenyl]-3-(trifluoromethyl)-4,5,6,7-tetrahydroindazol-7-yl]oxy]pyridine-2-carboxylic acid], the EC50 is under 1000 nM.

On to `COc1cncc(N(C)C(=O)c2cccc(-n3nc(C(F)(F)F)c4c3C(Oc3ccc(C(=O)O)cc3)CCC4)c2)c1` (centres unmarked) [Compound 166, 4-[[1-[3-[(5-Methoxy-3-pyridyl)-methyl-carbamoyl]phenyl]-3-(trifluoromethyl)-4,5,6,7-tetrahydroindazol-7-yl]oxy]benzoic acid], for which the EC50 is under 1000 nM.

As for `COc1ncc(N(C)C(=O)c2cccc(-n3nc(C(F)(F)F)c4c3C(Oc3ccc(C(=O)O)cc3)CCC4)c2)cn1` (centres unmarked) [Compound 168, 4-[[1-[3-[(2-Methoxypyrimidin-5-yl)-methyl-carbamoyl]phenyl]-3-(trifluoromethyl)-4,5,6,7-tetrahydroindazol-7-yl]oxy]benzoic acid], the concentration for a half-maximal effect (EC50) is under 1000 nM.

As for `CN(C(=O)c1cccc(-n2nc(C(F)(F)F)c3c2C(Oc2cccc(C(=O)O)c2)CCC3)c1)c1ccc2c(c1)OC(F)(F)O2` (centres unmarked) [Compound 170, 3-[[1-[3-[(2,2-Difluoro-1,3-benzodioxol-5-yl)-methyl-carbamoyl]phenyl]-3-(trifluoromethyl)-4,5,6,7-tetrahydroindazol-7-yl]oxy]benzoic acid], the EC50 is under 1000 nM.

On to `Cc1nc2ccc(N(C)C(=O)c3cccc(-n4nc(C(F)(F)F)c5c4C(Oc4ccc(C(=O)O)cc4)CCC5)c3)cn2n1` (centres unmarked) [Compound 172, 4-[[1-[3-[Methyl-(2-methyl-[1,2,4]triazolo[1,5-a]pyridin-6-yl)carbamoyl]phenyl]-3-(trifluoromethyl)-4,5,6,7-tetrahydroindazol-7-yl]oxy]benzoic acid], for which the EC50 was under 1000 nM.

In the case of `Cc1cc2ncc(N(C)C(=O)c3cccc(-n4nc(C(F)(F)F)c5c4C(Oc4ccc(C(=O)O)cc4)CCC5)c3)cn2n1` (centres unmarked) [Compound 174, 4-[[1-[3-[Methyl-(2-methylpyrazolo[1,5-a]pyrimidin-6-yl)carbamoyl]phenyl]-3-(trifluoromethyl)-4,5,6,7-tetrahydroindazol-7-yl]oxy]benzoic acid], the EC50 is under 1000 nM.

Take `Cc1cc(OC2CCCc3c(C(F)(F)F)nn(-c4cccc(C(=O)N(C)c5ccc6c(c5)OC(F)(F)O6)c4)c32)ccc1C(=O)O` (centres unmarked) [Compound 176, 4-[[1-[3-[(2,2-Difluoro-1,3-benzodioxol-5-yl)-methyl-carbamoyl]phenyl]-3-(trifluoromethyl)-4,5,6,7-tetrahydroindazol-7-yl]oxy]-2-methyl-benzoic acid]: the 50% effective concentration (EC50) is under 1000 nM.

For the molecule `CN(C(=O)c1cccc(-n2nc(C(F)(F)F)c3c2C(Oc2cncc(C(=O)O)c2)CCC3)c1)c1ccc2c(c1)OC(F)(F)O2` (centres unmarked) [Compound 178, 5-[[1-[3-[(2,2-Difluoro-1,3-benzodioxol-5-yl)-methyl-carbamoyl]phenyl]-3-(trifluoromethyl)-4,5,6,7-tetrahydroindazol-7-yl]oxy]pyridine-3-carboxylic acid], the EC50 was under 1000 nM.

Turning to `CN(C(=O)c1cccc(-n2nc(C(F)(F)F)c3c2C(Oc2ccc(C(=O)O)cn2)CCC3)c1)c1ccc2c(c1)OC(F)(F)O2` (centres unmarked) [Compound 180, 6-[[1-[3-[(2,2-Difluoro-1,3-benzodioxol-5-yl)-methyl-carbamoyl]phenyl]-3-(trifluoromethyl)-4,5,6,7-tetrahydroindazol-7-yl]oxy]pyridine-3-carboxylic acid], the EC50 is under 1000 nM.

Turning to `CN(C(=O)c1cccc(-n2nc(C(F)(F)F)c3c2C(Oc2cc(C(=O)O)ccn2)CCC3)c1)c1ccc2c(c1)OC(F)(F)O2` (centres unmarked) [Compound 182, 2-[[1-[3-[(2,2-Difluoro-1,3-benzodioxol-5-yl)-methyl-carbamoyl]phenyl]-3-(trifluoromethyl)-4,5,6,7-tetrahydroindazol-7-yl]oxy]pyridine-4-carboxylic acid], the half-maximal effective concentration (EC50) was under 1000 nM.

For the molecule `CN(C(=O)c1cccc(-n2nc(C(F)(F)F)c3c2C(Oc2ccc(C(=O)O)cc2)COC3)c1)c1ccc2c(c1)OC(F)(F)O2` (centres unmarked) [Compound 202, 4-[[1-[3-[(2,2-Difluoro-1,3-benzodioxol-5-yl)-methyl-carbamoyl]phenyl]-3-(trifluoromethyl)-6,7-dihydro-4H-pyrano[4,3-c]pyrazol-7-yl]oxy]benzoic acid], the EC50 is under 1000 nM.

Turning to `O=C(O)c1ccc(OC2CCCc3c(C(F)(F)F)nn(-c4cccc(C(=O)Nc5ccc6c(c5)OC(F)(F)O6)c4)c32)cc1` (centres unmarked) [Compound 253, 4-[[1-[3-[(2,2-Difluoro-1,3-benzodioxol-5-yl)carbamoyl]phenyl]-3-(trifluoromethyl)-4,5,6,7-tetrahydroindazol-7-yl]oxy]benzoic acid], the EC50 is over 2000 nM.

Take `CN1Cc2c(C(F)(F)F)nn(-c3cccc(C(=O)N(C)c4ccc5c(c4)OC(F)(F)O5)c3)c2C(Oc2ccc(C(=O)O)cc2)C1` (centres unmarked) [Compound 274, Ammonium 4-[[1-[3-[(2,2-difluoro-1,3-benzodioxol-5-yl)-methyl-carbamoyl]phenyl]-5-methyl-3-(trifluoromethyl)-6,7-dihydro-4H-pyrazolo[4,3-c]pyridin-7-yl]oxy]benzoate]: the EC50 is under 1000 nM.
